ChEMBL document CHEMBL1773061, “Chiral sulfoxides as metabolites of 2-thioimidazole-based p38α mitogen-activated protein kinase inhibitors: enantioselective synthesis and biological evaluation” (J Med Chem, 2011)

Columns and labels:
Type in all cases: tissue-based
[1] = target: T1, Mitogen-activated protein kinase 14 (Homo sapiens, UniProt Q16539); test: Inhibition of p38 alpha MAPK in human whole blood assessed as phosphorylation of ATF-2 by immunosorbent non-radioactive enzyme assay relative to SB203580
T1 sequence (Q16539 whole entry): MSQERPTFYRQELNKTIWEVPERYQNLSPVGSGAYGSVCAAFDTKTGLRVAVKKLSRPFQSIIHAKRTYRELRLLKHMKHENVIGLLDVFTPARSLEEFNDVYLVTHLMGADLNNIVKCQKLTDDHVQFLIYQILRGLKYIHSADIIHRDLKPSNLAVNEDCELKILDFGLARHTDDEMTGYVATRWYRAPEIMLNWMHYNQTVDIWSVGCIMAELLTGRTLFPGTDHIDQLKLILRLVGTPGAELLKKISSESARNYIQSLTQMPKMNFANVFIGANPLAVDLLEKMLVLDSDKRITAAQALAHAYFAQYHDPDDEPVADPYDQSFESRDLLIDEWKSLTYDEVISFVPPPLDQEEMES

[2] = target: T1, Mitogen-activated protein kinase 14; test: Inhibition of p38 alpha MAPK in human whole blood assessed as phosphorylation of ATF-2 by immunosorbent non-radioactive enzyme assay
[3] = target: T1, Mitogen-activated protein kinase 14; test: Inhibition of p38 alpha MAPK in human whole blood assessed as suppression of LPS-induced TNF-alpha release by immunosorbent non-radioactive enzyme assay
[4] = target: T1, Mitogen-activated protein kinase 14; test: Inhibition of p38 alpha MAPK in human whole blood assessed as suppression of LPS-induced TNF-alpha release by immunosorbent non-radioactive enzyme assay relative to SB203580

Ratio IC50 [1]	IC50 [2] [nM]	IC50 [3] [nM]	Ratio IC50 [4]	Compound
0.028	1260	–	–	CC(=O)Nc1cc(-c2c(-c3ccc(F)cc3)nc([S@+](C)[O-])n2C)ccn1
–	21	340	–	CC(C)[S@+]([O-])c1nc(-c2ccnc(NC3CCCCC3)c2)c(-c2ccc(F)cc2)[nH]1
0.55	–	–	–	CC(=O)Nc1cc(-c2[nH]c([S@@+](C)[O-])nc2-c2ccc(F)cc2)ccn1
5	3	250	4.92	CC(C)Nc1cc(-c2[nH]c([S+]([O-])C(C)C)nc2-c2ccc(F)cc2)ccn1 (racemic)
1.62	–	–	5.62	CC(C)[S@+]([O-])c1nc(-c2ccc(F)cc2)c(-c2ccnc(NC3CCCCC3)c2)[nH]1
6.17	–	–	3.13	CC(C)Nc1cc(-c2[nH]c([S@@+]([O-])C(C)C)nc2-c2ccc(F)cc2)ccn1
9.25	–	–	4.24	CC(C)Nc1cc(-c2[nH]c([S@+]([O-])C(C)C)nc2-c2ccc(F)cc2)ccn1
18	2	130	12	CSc1nc(-c2ccc(F)cc2)c(-c2ccnc(NC(C)C)c2)[nH]1
4.17	–	–	2.86	CC(C)Sc1nc(-c2ccc(F)cc2)c(-c2ccnc(NC3CCCCC3)c2)[nH]1
1.18	61	1340	0.92	CC(C)[C@@H](C)Nc1cc(-c2[nH]c([S+](C)[O-])nc2-c2ccc(F)cc2)ccn1 (mixture of isomers)
3.44	–	–	0.66	CSc1nc(-c2ccc(F)cc2)c(-c2ccnc(NC(=O)Cc3ccc(F)cc3)c2)[nH]1
3.41	17	150	10.4	CC(C)[C@H](C)Nc1cc(-c2[nH]c([S+](C)[O-])nc2-c2ccc(F)cc2)ccn1 (mixture of isomers)
4.67	12	340	3.62	C[S+]([O-])c1nc(-c2ccc(F)cc2)c(-c2ccnc(NC3CCOCC3)c2)[nH]1 (racemic)
–	12	650	–	CC(C)Sc1nc(-c2ccnc(NC3CCCCC3)c2)c(-c2ccc(F)cc2)[nH]1
1.38	–	–	2.05	C[S@+]([O-])c1nc(-c2ccc(F)cc2)c(-c2ccnc(NC3CCOCC3)c2)[nH]1
1.44	–	–	2.07	CC(C)[C@@H](C)Nc1cc(-c2[nH]c([S@+](C)[O-])nc2-c2ccc(F)cc2)ccn1
–	12	530	–	CC(C)Nc1cc(-c2nc([S@@+](C)[O-])[nH]c2-c2ccc(F)cc2)ccn1
–	–	2980	–	CSc1nc(-c2ccnc(NC(=O)Cc3ccc(F)cc3)c2)c(-c2ccc(F)cc2)[nH]1
7.5	2	470	2.62	CC(C)Nc1cc(-c2[nH]c([S+](C)[O-])nc2-c2ccc(F)cc2)ccn1 (racemic)
3.05	–	–	8.5	CC(C)[C@H](C)Nc1cc(-c2[nH]c([S@@+](C)[O-])nc2-c2ccc(F)cc2)ccn1
0.53	95	6280	0.25	C[C@H](Nc1cc(-c2[nH]c([S+](C)[O-])nc2-c2ccc(F)cc2)ccn1)c1ccccc1 (mixture of isomers)

Ratio IC50 [1]	IC50 [2] [nM]	IC50 [3] [nM]	Ratio IC50 [4]	Compound
2.32	31	900	1.72	CC(C)[C@@H](C)Nc1cc(-c2[nH]c([S@@+](C)[O-])nc2-c2ccc(F)cc2)ccn1
2.55	29	550	3.09	C[S@@+]([O-])c1nc(-c2ccc(F)cc2)c(-c2ccnc(NC3CCCCC3)c2)[nH]1
0.28	207	–	–	C[C@@H](Nc1cc(-c2[nH]c([S+](C)[O-])nc2-c2ccc(F)cc2)ccn1)c1ccccc1 (mixture of isomers)
–	27	170	–	CSc1nc(-c2ccnc(NC3CCCCC3)c2)c(-c2ccc(F)cc2)[nH]1
–	–	180	–	CSc1nc(-c2ccnc(NC3CCOCC3)c2)c(-c2ccc(F)cc2)[nH]1
0.1	403	–	–	CC(=O)Nc1cc(-c2[nH]c([S+](C)[O-])nc2-c2ccc(F)cc2)ccn1 (racemic)
2.11	37	–	–	CSc1nc(-c2ccc(F)cc2)c(-c2ccnc(NC(C)=O)c2)[nH]1
3.09	11	250	7.64	CC(C)[S@@+]([O-])c1nc(-c2ccc(F)cc2)c(-c2ccnc(NC3CCCCC3)c2)[nH]1
–	34	830	–	C[S@+]([O-])c1nc(-c2ccnc(NC3CCOCC3)c2)c(-c2ccc(F)cc2)[nH]1
3.75	4	120	19.4	CC(C)Nc1cc(-c2[nH]c(SC(C)C)nc2-c2ccc(F)cc2)ccn1
1.48	–	–	2.08	C[S@+]([O-])c1nc(-c2ccc(F)cc2)c(-c2ccnc(NC3CCCCC3)c2)[nH]1
1.68	34	620	1.98	C[S+]([O-])c1nc(-c2ccc(F)cc2)c(-c2ccnc(NC3CCCCC3)c2)[nH]1 (racemic)
2.17	18	1080	1.72	CC(C)[S+]([O-])c1nc(-c2ccc(F)cc2)c(-c2ccnc(NC3CCCCC3)c2)[nH]1 (racemic)
–	168	–	–	C[C@@H](Nc1cc(-c2nc([S@@+](C)[O-])[nH]c2-c2ccc(F)cc2)ccn1)c1ccccc1
–	50	590	–	C[S@+]([O-])c1nc(-c2ccnc(NC3CCCCC3)c2)c(-c2ccc(F)cc2)[nH]1
0.042	1070	–	–	CC(=O)Nc1cc(-c2c(-c3ccc(F)cc3)nc([S+](C)[O-])n2C)ccn1 (racemic)
0.28	188	–	–	CSc1nc(-c2ccc(F)cc2)c(-c2ccnc(NC(C)=O)c2)n1C
1.16	69	5550	0.31	C[S+]([O-])c1nc(-c2ccc(F)cc2)c(-c2ccnc(NC(=O)Cc3ccc(F)cc3)c2)[nH]1 (racemic)
0.55	–	–	0.23	C[S@+]([O-])c1nc(-c2ccc(F)cc2)c(-c2ccnc(NC(=O)Cc3ccc(F)cc3)c2)[nH]1
0.62	–	–	0.28	C[C@H](Nc1cc(-c2[nH]c([S@+](C)[O-])nc2-c2ccc(F)cc2)ccn1)c1ccccc1
0.49	–	–	–	C[C@@H](Nc1cc(-c2[nH]c([S@@+](C)[O-])nc2-c2ccc(F)cc2)ccn1)c1ccccc1

Ratio IC50 [1]	IC50 [2] [nM]	IC50 [3] [nM]	Ratio IC50 [4]	Compound
–	141	7530	–	C[S@+]([O-])c1nc(-c2ccnc(NC(=O)Cc3ccc(F)cc3)c2)c(-c2ccc(F)cc2)[nH]1
1.81	26	50	31.2	CSc1nc(-c2ccc(F)cc2)c(-c2ccnc(N[C@@H](C)C(C)C)c2)[nH]1
–	36	750	–	CC(C)[C@@H](C)Nc1cc(-c2nc([S@+](C)[O-])[nH]c2-c2ccc(F)cc2)ccn1
0.45	197	–	–	CC(=O)Nc1cc(-c2[nH]c([S@+](C)[O-])nc2-c2ccc(F)cc2)ccn1
0.42	200	–	–	C[C@@H](Nc1cc(-c2[nH]c([S@+](C)[O-])nc2-c2ccc(F)cc2)ccn1)c1ccccc1
–	11	790	–	C[S@@+]([O-])c1nc(-c2ccnc(NC3CCOCC3)c2)c(-c2ccc(F)cc2)[nH]1
1.12	25	10000	0.16	C[C@H](Nc1cc(-c2[nH]c([S@@+](C)[O-])nc2-c2ccc(F)cc2)ccn1)c1ccccc1
4.45	–	–	2.15	C[S@@+]([O-])c1nc(-c2ccc(F)cc2)c(-c2ccnc(NC3CCOCC3)c2)[nH]1
5.08	–	–	3.62	CC(C)Nc1cc(-c2[nH]c([S@@+](C)[O-])nc2-c2ccc(F)cc2)ccn1
–	161	–	–	CC(=O)Nc1cc(-c2nc([S@@+](C)[O-])[nH]c2-c2ccc(F)cc2)ccn1
–	19	200	–	CC(C)[C@H](C)Nc1cc(-c2nc([S@@+](C)[O-])[nH]c2-c2ccc(F)cc2)ccn1
2.54	24	840	2.29	CC(C)Nc1cc(-c2[nH]c([S@+](C)[O-])nc2-c2ccc(F)cc2)ccn1
1.8	40	180	8.67	CSc1nc(-c2ccc(F)cc2)c(-c2ccnc(N[C@H](C)C(C)C)c2)[nH]1
0.035	1030	–	–	CC(=O)Nc1cc(-c2c(-c3ccc(F)cc3)nc([S@@+](C)[O-])n2C)ccn1
–	4	450	–	CC(C)Nc1cc(-c2nc([S@+]([O-])C(C)C)[nH]c2-c2ccc(F)cc2)ccn1
1	77	6410	0.27	C[S@@+]([O-])c1nc(-c2ccc(F)cc2)c(-c2ccnc(NC(=O)Cc3ccc(F)cc3)c2)[nH]1
–	6	610	–	CC(C)Nc1cc(-c2nc([S@@+]([O-])C(C)C)[nH]c2-c2ccc(F)cc2)ccn1
9.8	–	–	10.7	CSc1nc(-c2ccc(F)cc2)c(-c2ccnc(NC3CCOCC3)c2)[nH]1
2.15	27	250	6.8	CC(C)[C@H](C)Nc1cc(-c2[nH]c([S@+](C)[O-])nc2-c2ccc(F)cc2)ccn1
2.89	–	–	7.24	CSc1nc(-c2ccc(F)cc2)c(-c2ccnc(NC3CCCCC3)c2)[nH]1
–	45	5520	–	C[C@H](Nc1cc(-c2nc([S@+](C)[O-])[nH]c2-c2ccc(F)cc2)ccn1)c1ccccc1
